Tests used:
[1] = system: rats with oxaliplatin CIPN; assay: Oxaliplatin CIPN mechanical hyperalgesia, Randall-Selitto paw-withdrawal test; assay type: in vivo, Sprague-Dawley rats; conditions: for CIPN hyperalgesia, effect of hyaluronan molecular weight range: male rats with oxaliplatin CIPN, topical, combined with DMSO
Protocol: (§1) Experimental animals. Experiments were performed on 220-400 g male and female Sprague-Dawley rats, purchased from Charles River Laboratories (Hollister, CA, USA), housed three per cage, under a 12-hour light/dark cycle, in a temperature- and humidity-controlled animal care facility at the University of California, San Francisco. Food and water were available ad libitum. Experimental protocols were approved by the University of California, San Francisco, Institutional Animal Care and Use Committee, and adhered to the National Institutes of Health Guidelines for the care and use of laboratory animals.
(§2) Measurement of nociceptive threshold. Mechanical nociceptive threshold was quantified with an Ugo Basile Analgesymeter (Stoelting, Wood Dale, IL, USA), used to perform the Randall-Selitto paw-withdrawal test [61; 68; 69]. This device uses a dome-shaped plinth to apply a mechanical force that increases linearly with time, to the dorsum of a rat's hindpaw. To perform the Randall-Selitto paw-withdrawal test, rats were placed in cylindrical acrylic restrainers with lateral ports that allow access to the hind paw, as described previously. Rats were acclimatized to the testing procedure by placing them in restrainers for 1 h per day for 3 consecutive daily training sessions, and for 30-40 min prior to experiments.
(§3) Mechanical nociceptive threshold is defined as the force, in grams, applied by the plinth to the dorsum of the hindpaw, at which a rat withdraws its paw from the stimulus. Baseline paw-withdrawal threshold is defined as the mean of three readings taken before administration of test agents. To minimize experimenter bias, individuals conducting experiments were blinded to experimental treatments. Each experiment was performed on a different group of rats. Data are presented as mechanical nociceptive threshold, in grams (g) or percentage change from preintervention baseline.
(§4) Hyaluronans were initially dissolved in distilled water (dH2O) at a concentration of 10 μg/μL, stock solution, and further diluted by adding DMSO with three final concentrations of hyaluronan (1, 2 and 4 μg/μL), protamine or terpene; unless otherwise stated, the final concentration of DMSO was 75%. The DMSO vehicle was 75% DMSO in 0.9% saline. In one experiment, 500-1200 kDa hyaluronan was administered topically in 0.9% saline vehicle. PGE2 was dissolved in 0.9% saline at the same final concentration that we previously injected intradermally (100 ng/5 μL). In the experiments in which hyaluronan was dissolved in protamine or terpene vehicle, protamine was first dissolved in distilled water (dH2O) to a concentration of 5 μg/μ1, stock solution of hyaluronan was combined with protamine at the final concentration of 2 μg/μ1, in a volume of 3 μl, for topical administration; terpene was first dissolved in dH2O at the concentration of 2 μg/μ1, then hyaluronan was dissolved in stock solution of terpene to its final concentration of 2 μg/μ1, in a volume of 3 μl, for topical administration).
Oxaliplatin CIPN: Oxaliplatin was freshly dissolved in 0.9% saline at a concentration of 2 mg/mL just prior to its tail vein intravenous (i.v.) administration (1 mL/kg), to rats briefly anesthetized with isoflurane (2.5% in O2).
Hyaluronans (30 μL) were administered topically on the dorsum of the hind paw, dispensed from a P200 pipette (Gilson, Middleton, WI, USA) with a plastic pipette tip and then spread manually. […]
(§5) Before use, ODNs were reconstituted in nuclease-free 0.9% saline and then administered by the intrathecal (i.t.) route. As described previously, rats were anesthetized with isoflurane (2.5% in O2) and 120 μg of ODN, in a volume of 20 μL, injected i.t., using a syringe ([…]) attached to a 29-gauge hypodermic needle that was inserted into the subarachnoid space, between the L4 and L5 vertebrae. The i.t. site of the injectate was confirmed by a sudden flick of the rat's tail, a reflex evoked by subarachnoid space access and bolus i.t. injection. […]

[2] = system: rats with bortezomib CIPN; assay: Bortezomib CIPN mechanical hyperalgesia, Randall-Selitto paw-withdrawal test; assay type: in vivo, Sprague-Dawley rats; conditions: male rats; bortezomib 0.2 mg/kg i.v., 4 doses, day 7
Protocol: as §1, §2
as §3, with “baseline. […]” for “baseline.”

[3] = system: 5-HT-induced scratching behavior in rats; assay: 5-HT-induced scratching (itch) behavior; assay type: in vivo; conditions: topical 100 μg in 50 μl 75% DMSO in water, 30 and 5 mins before 5-HT 200 μg i.d.
Protocol: Topical hyaluronan attenuates itch behavior in rats. Intradermal administration of serotonin (5-HT) elicited acute scratching behavior, using the method of Nojima and Carstens {Nojima and Carstens, 2003, #99335; PMID: 12814838}. Rats were acclimated to a testing chamber for 30 min, and then briefly anesthetized with 2% isoflurane, during which the fur over the nape of the neck was shaved, and 5-HT (200 μg in 10 μl 0.9% saline vehicle) injected with a 30 gauge needle. In the topical hyaluronan group, hyaluronan (100 μg in 50 μl 75% DMSO in water vehicle) was applied to the skin 30 mins and again 5 mins before administration of 5-HT. Rats were placed back into testing chambers and their behavior video recorded for 40 min. Number of hind paw scratches directed at the injection site were counted by watching video playback at half normal speed, and total number of scratches in 2-min intervals recorded. Rats were treated with 5-HT alone and topical hyaluronan with 5-HT, with 4 days between experimental sessions, allowing for use of paired t-tests to compare data. Data are presented as cumulative number of scratches (FIG. 9A), and as total scratches over the 40-min observation period (FIG. 9B). […] See also, FIG. 10, which includes additional data showing that topical hyaluronan attenuates 5-HT-induced scratching behavior. […] Data are presented as cumulative number of scratches.

[4] = system: rats; conditions: previously shown; cited from earlier work
[5] = system: rats with paclitaxel CIPN; assay: Paclitaxel CIPN mechanical hyperalgesia, Randall-Selitto paw-withdrawal test; assay type: in vivo, Sprague-Dawley rats; conditions: male rats; paclitaxel 1 mg/kg i.p., 4 doses, day 7
Protocol: as §1, §2, §3, §4
Paclitaxel CIPN: Paclitaxel was dissolved in Cremophor EL and ethanol (1:1) [1; 6; 20; 22] and diluted in 0.9% saline to a concentration of 1 mg/mL, just prior to its intraperitoneal (i.p.) administration (1 mg/kg, i.p.) [19; 42] to rats briefly anesthetized with isoflurane (2.5% in O2), every other day for a total of 4 doses.
Hyaluronans (30 μL) were administered topically on the dorsum of the hind paw, dispensed from a P200 pipette (Gilson, Middleton, WI, USA) with a plastic pipette tip and then spread manually.
Antisense oligodeoxynucleotides (ODNs).
as §5, with “vertebrae.” for “vertebrae. The i.t. site of the injectate was confirmed by a sudden flick of the rat's tail, a reflex evoked by subarachnoid space access and bolus i.t. injection.”

[6] = system: PGE2 hyperalgesia in male and female rats; assay: PGE2-induced mechanical hyperalgesia, Randall-Selitto paw-withdrawal test; assay type: in vivo, Sprague-Dawley rats; conditions: 100 ng intradermally, dorsum of hind paw, male and female rats
Protocol: as §1, §2, §3
Hyaluronans were initially dissolved in distilled water (dH2O) at a concentration of 10 μg/μL, stock solution, and further diluted by adding DMSO with three final concentrations of hyaluronan (1, 2 and 4 μg/μL), protamine or terpene; unless otherwise stated, the final concentration of DMSO was 75%. The DMSO vehicle was 75% DMSO in 0.9% saline. In one experiment, 500-1200 kDa hyaluronan was administered topically in 0.9% saline vehicle. PGE2 was dissolved in 0.9% saline at the same final concentration that we previously injected intradermally (100 ng/5 μL). […]

## hyaluronan [300-500 kDa hyaluronan]
[1]
  CIPN hyperalgesia, effect of hyaluronan molecular weight range: produced robust anti-hyperalgesia, of similar magnitude and duration

## hyaluronan [1500-1750 kDa hyaluronan]
[1]
  CIPN hyperalgesia, effect of hyaluronan molecular weight range: produced robust anti-hyperalgesia, of similar magnitude and duration

## O=C1[O][Pt]2([NH][C@@H]3CCCC[C@H]3[NH]2)[O]C1=O [Oxaliplatin, oxaliplatin, reference compound]
[1]; male rats, oxaliplatin 2 mg/kg i.v., day 7
  mechanical nociceptive threshold after chemotherapy: decreased mechanical nociceptive threshold

## hyaluronan [70-120 kDa hyaluronan]
[1]
  CIPN hyperalgesia, effect of hyaluronan molecular weight range: did not attenuate CIPN hyperalgesia

## CC(C)C[C@H](NC(=O)[C@H](Cc1ccccc1)NC(=O)c1cnccn1)B(O)O [Bortezomib, bortezomib, reference compound]
[2]
  mechanical nociceptive threshold after chemotherapy: decreased mechanical nociceptive threshold

## hyaluronan
[3]
  number of 5-HT scratches over 40 min: significantly attenuated the number of 5-HT scratches

## hyaluronan [low molecular weight hyaluronan, reference compound]
[4]
  nociceptive effect of intradermal injection: induced hyperalgesia

## CC(=O)O[C@H]1C(=O)[C@@]2(C)[C@H]([C@H](OC(=O)c3ccccc3)[C@]3(O)C[C@H](OC(=O)[C@H](O)[C@@H](NC(=O)c4ccccc4)c4ccccc4)C(C)=C1C3(C)C)[C@]1(OC(C)=O)CO[C@@H]1C[C@@H]2O [Paclitaxel, paclitaxel, reference compound]
[5]
  mechanical nociceptive threshold after chemotherapy: decreased mechanical nociceptive threshold

## hyaluronan [150-300 kDa hyaluronan]
[1]
  CIPN hyperalgesia, effect of hyaluronan molecular weight range: produced robust anti-hyperalgesia, of similar magnitude and duration

## CCCCC[C@H](O)/C=C/[C@H]1[C@H](O)CC(=O)[C@@H]1C/C=C\CCCC(=O)O [PGE2, prostaglandin E2, reference compound]
[6]
  mechanical hyperalgesia after intradermal PGE2: produced robust mechanical hyperalgesia

From patent US20240156856A1, “NOVEL APPLICATIONS OF HYALURONIC ACID FOR TREATMENT OF PAIN AND PRURITIS” (THE REGENTS OF THE UNIVERSITY OF CALIFORNIA, priority 2022, published 2024)
